{"source": "patent US5705649A", "about": "“Protein staining compositions and methods” (Promega Corporation, priority 1995, dated 1998)", "key": {"[1]": {"system": "Promega Mid-Range Molecular Weight Markers", "experiment": "Recovery of proteins separated by gel electrophoresis", "conditions": "re-run 10% SDS-PAGE, 30% methanol, 4% acetic acid, 1 hour", "protocol": "An 8% SDS-PAGE gel was prepared as described above and loaded with Promega Mid-Range Molecular Weight Markers at a concentration of 4 μg of each protein per lane. The gel was run at 160 V with 200 μl of octyl Coomassie (Promega Green 1) stock solution in the cathode buffer (125 ml).\nAfter electrophoresis, the gel segments containing the 97, 66, 55, 43, and 40 kilodalton proteins were excised from four consecutive lanes, minced, and placed in individual 1.5 ml Eppendorf tubes containing 0.5 ml of 50 mM ammonium bicarbonate pH 7.8 containing 0.02% SDS (w/v). The tubes were then incubated at 50° C. for 14 hours.\nAfter that time, the tubes were spun for 1 minute in a microfuge to pellet the minced acrylamide and 0.47 ml of the supernate was removed to new 1.5 ml tubes. Two of the four solutions from each of the eluted protein samples were dried in a Speed-Vac, the other pair was first ultrafiltered through a 5000 dalton cut-off Milligen centrifugal concentrator by centrifugation in a microfuge for 30 minutes. These concentrated solutions were then dried in a Speed Vac.\nThe dried samples were resuspended in 25 μl of 1× loading buffer and heated at 95° C. for 10 minutes. These samples were then loaded in two 15-well, 0.75 mm 10% SDS-PAGE gels made as above. The gels were then run at 160 V with 200 μl of Promega Green 1 stock solution in the cathode buffer (125 ml). […]"}, "[2]": {"system": "Promega Mid-Range Molecular Weight Markers", "experiment": "Enhancement of staining of proteins in SDS-PAGE gels in 5% acetic acid", "protocol": "The gels described above were placed in 5% acetic acid following the termination of the electrophoretic separation. Within one to two minutes the gel developed a light green background but the protein bands dramatically darkened to a green color. […] Again, the color of the background darkened to a greater degree when greater concentrations of dye were used.\nThe gels above (from Example 7) were placed in 5% acetic acid following termination of the electrophoretic separation. Within 1-2 minutes, all the gels turned light green and the color of the stained bands intensified such that all proteins were visible--even in the lane containing 0.25 μg protein/band.\nThe gels above (Example 9) were placed in 5% acetic acid following termination of the electrophoretic separation. Within 1-2 minutes, all the gels turned light green and the color of the stained bands intensified such that all proteins were visible--even in the lanes containing 0.25 μg protein/band."}, "[3]": {"system": "bovine serum albumin (BSA)", "experiment": "Effect of solution pH on absorption in presence and absence of protein", "format": "physicochemical", "protocol": "The effect of solution pH on the absorption of Promega Green 1 in the presence and absence of added protein was studied by dilution of Promega Green 1 solution at a ratio of 1:1000 (v/v) into various solutions containing 0 or 100 μg of protein (bovine serum albumin (BSA)) per ml of liquid. The solutions tested were highly acidic (1N HCl), moderately acidic (2% acetic acid), weakly acidic (50 mM ammonium acetate pH 4.0), weakly basic (50 mM ammonium bicarbonate pH 7.8), and strongly basic (500 mM Tris base). The absorption spectra of the solutions were measured from […] and the peak absorbances are reported below."}, "[4]": {"system": "Promega Mid-Range Molecular Weight Standards", "experiment": "In-situ staining of proteins during transfer to immobilizing supports", "protocol": "The use of immobilizing supports such as nitrocellulose, nylon, glass or polyvinyl difluoride has become very common in the immunochemical or sequence analysis of proteins. […] Two Whatman 3 mM sheets were soaked in transfer buffer and these components were then used to construct a transfer sandwich composed of one sheet of Whatman paper, the SDS-PAGE gel, the Immobilon sheet, and the final sheet of Whatman. The sandwich was placed in a Hoeffer transfer apparatus and oriented in the apparatus such that the Immobilon side of the sandwich was oriented toward the positive electrode. The apparatus was placed at 4° C. and 10 V were applied to the apparatus for 30 minutes then the voltage was increased to 30 V for an additional 120 minutes.\nThe Immobilon membrane was then soaked in 45% methanol, 5% acetic acid for 2 minutes."}, "[5]": {"system": "Promega Mid-Range Molecular Weight Markers", "experiment": "Recovery of protein using novel recovery method (liquid reservoir in gel)", "conditions": "8% SDS-PAGE gel, slots below bands", "description": "Because Promega Green 1 can be used to stain protein during electrophoretic separations, we determined that proteins separated by gel electrophoresis can be recovered into a liquid reservoir placed in the gel. This is possible only with in-situ stained proteins because it would not be obvious where to place the liquid reservoir otherwise.\nAccordingly, an 8% SDS-PAGE gel was made, loaded and run as described in the preceding example. After the run was complete, one of the glass plates encasing the gel was removed and 1.0×0.3 cm slots were excised from the gel immediately below the 97, 66, 40, and 31 kilodalton standards The gel was then placed in a flat bed electrophoresis apparatus which had its buffer chambers filled with 25 mM tris base, 192 mM glycine (electrode buffer) to the level of the central, raised portion of the apparatus. The gel was placed in the apparatus such that the acrylamide gel above the remaining glass plate was filled with electrode buffer. The slots were also filled with electrode buffer and electric connection was made between the gel and the buffer chambers by use of Whatman 3 mM paper wicks soaked in transfer buffer and then 160 V was applied to the apparatus for 2 minutes. After this, the buffer in the slots was removed and placed in 1.5 ml Eppendorf tubes, the slots were refilled with fresh electrode buffer and the voltage was reapplied. […]"}, "[6]": {"conditions": "moderately acidic (2% acetic acid), protein absent"}, "[7]": {"conditions": "moderately acidic (2% acetic acid), protein present (100 μg/ml BSA)"}, "[8]": {"conditions": "strongly acidic (1N HCl), protein absent"}, "[9]": {"conditions": "strongly acidic (1N HCl), protein present (100 μg/ml BSA)"}, "[10]": {"conditions": "strongly basic (500 mM Tris base), protein absent"}, "[11]": {"conditions": "strongly basic (500 mM Tris base), protein present (100 μg/ml BSA)"}, "[12]": {"conditions": "weakly acidic (50 mM ammonium acetate pH 4.0), protein absent"}, "[13]": {"conditions": "weakly acidic (50 mM ammonium acetate pH 4.0), protein present (100 μg/ml BSA)"}, "[14]": {"conditions": "weakly basic (50 mM ammonium bicarbonate pH 7.8), protein absent"}, "[15]": {"conditions": "weakly basic (50 mM ammonium bicarbonate pH 7.8), protein present (100 μg/ml BSA)"}}, "data": [{"smiles": "CCCCCCCC(=O)N(c1ccc(OCC)cc1)c1ccc(C(=C2C=CC(=[N+](CC)Cc3cccc(S(=O)(=O)[O-])c3)C=C2)c2ccc(N(CC)Cc3cccc(S(=O)(=O)O)c3)cc2)cc1", "note": "[Promega Green 1]", "values": [{"measurement": "detection of recovered proteins", "setting": "[1]", "value": "the expected protein bands could be seen in the lanes"}, {"measurement": "visibility of protein bands after enhancement", "setting": "[2]; 5% acetic acid, one to two minutes", "value": "All of the protein bands in all the lanes having sample were now visible"}, {"measurement": "staining after overnight incubation", "setting": "[2]; 5% acetic acid, overnight", "value": "appeared to darken slightly"}, {"measurement": "overall performance", "setting": "[2]; Examples 5-10", "value": "most desirable properties of the compounds tested"}, {"measurement": "ABS (peak absorbance)", "setting": "[3]; [6]", "value": 0.83}, {"measurement": "absorption max", "setting": "[3]; [6]", "value": 631, "unit": "nm"}, {"measurement": "ABS (peak absorbance)", "setting": "[3]; [7]", "value": 0.98}, {"measurement": "absorption max", "setting": "[3]; [7]", "value": 635, "unit": "nm"}, {"measurement": "ABS (peak absorbance)", "setting": "[3]; [8]", "value": 0.27}, {"measurement": "absorption max", "setting": "[3]; [8]", "value": 649, "unit": "nm"}, {"measurement": "ABS (peak absorbance)", "setting": "[3]; [9]", "value": 0.39}, {"measurement": "absorption max", "setting": "[3]; [9]", "value": 641, "unit": "nm"}, {"measurement": "ABS (peak absorbance)", "setting": "[3]; [10]", "value": 0.22}, {"measurement": "absorption max", "setting": "[3]; [10]", "value": 637, "unit": "nm"}, {"measurement": "ABS (peak absorbance)", "setting": "[3]; [11]", "value": 0.128}, {"measurement": "absorption max", "setting": "[3]; [11]", "value": 637, "unit": "nm"}, {"measurement": "ABS (peak absorbance)", "setting": "[3]; [12]", "value": 0.49}, {"measurement": "absorption max", "setting": "[3]; [12]", "value": 636, "unit": "nm"}, {"measurement": "ABS (peak absorbance)", "setting": "[3]; [13]", "value": 0.25}, {"measurement": "absorption max", "setting": "[3]; [13]", "value": 638, "unit": "nm"}, {"measurement": "ABS (peak absorbance)", "setting": "[3]; [14]", "value": 0.49}, {"measurement": "absorption max", "setting": "[3]; [14]", "value": 636, "unit": "nm"}, {"measurement": "ABS (peak absorbance)", "setting": "[3]; [15]", "value": 0.26}, {"measurement": "absorption max", "setting": "[3]; [15]", "value": 637, "unit": "nm"}, {"measurement": "visibility of bands on membrane after enhancement", "setting": "[4]; 45% methanol, 5% acetic acid, 2 minutes", "value": "the protein band at all concentrations became easily visible"}, {"measurement": "lowest protein per band visible on Immobilon membrane after transfer", "setting": "[4]; before enhancement", "value": 1.0, "unit": "µg"}, {"measurement": "capture of protein bands in liquid reservoir", "setting": "[5]", "value": "the desired protein bands had been captured by this method"}]}]}
